Data from patent US20060229276A1, “Use of glycosoaminoglycans for the prevention and treatment of sepsis” (priority 2004, published 2006).
“Also recorded” adds a separate entry of the source. Where two headings read alike, the source gives them in different places.

How the values were obtained:
S. aureus strain K2 = experiment: S. aureus strain K2-induced sepsis in mice (survival, weight, clinical appearance); settings: for survival versus PBS control: 20 μg/mouse s.c.
Experimental: FIGS. 5A-B show the dose effect of dermatan sulfate on the survival of mice infected with a […] dose S. aureus. S. aureus K2 was grown to log phase and set via a nephelometer to an LD60-80% (30 million cfu per mouse in FIG. 5A; 35 million cfu per mouse in FIG. 5B). Balb/c mice were infected intravenously (0.5 ml) on day zero. Animals were then inoculated subcutaneously with low molecular weight heparin or dermatan sulfate (20 μg/mouse) at two hour and subsequently every twenty-four hours. Control group mice were injected with PBS. Clinical appearance and weight was recorded daily.
FIGS. 6A-B show the dose effect of dermatan sulfate (DS) on mice infected with S. aureus strain K2. S. aureus strain K2 was grown to log phase and set via a nephelometer to a lethal concentration of 40 million cfu per mouse. Balb/c mice were infected intravenously with 40 m cfu's of S. aureus K2. Treatment groups were injected subcutaneously with increasing doses of dermatan sulfate (0.1 to 12.5 mg/kg body weight or 2 to 250 μg of dermatan sulfate) at two hour and subsequently every twenty-four hours. Control group mice were injected subcutaneously with PBS. Clinical appearance and weight were recorded daily. […] In FIG. 6A, n=15 in PBS and n=10 for all doses of dermatan sulfate and in FIG. 6B, n=10 for both the doses of dermatan sulfate.
FIGS. 7A-B show the dose effect of dermatan sulfate (DS) on mice infected with S. aureus strain K2. S. aureus strain K2 was grown to log phase and set via a nephelometer to a lethal concentration of 40 million cfu per mouse. Balb/c mice were infected intravenously with 40 m cfu's of S. aureus K2 on day 0. Treatment groups were injected subcutaneously with increasing doses of dermatan sulfate (0.025 to 25 mg/kg body weight or 0.5 to 500 μg of dermatan sulfate) at two hour and subsequently every twenty-four hours. Control group mice were injected subcutaneously with PBS. Clinical appearance and weight were recorded daily.

[1] = Toxicity of high dose dermatan sulfate in non infected control mice; format: in vivo; settings: 500 μg/day
Experimental: A very high dose of approximately 25 mg/kg body weight is detrimental to the infected mice after the onset of sepsis (FIG. 7A). […] But, a high dose of dermatan sulfate was non-toxic to non infected control mice treated with 500 μg/day of dermatan sulfate.

Fibrinogen = Fibrinogen levels in plasma of S. aureus K2-infected mice; format: in vivo, Balb/c mice; settings: 50-500 μg/day s.c.; 48 hours after infection
Experimental: (§1) Control group mice were injected subcutaneously with PBS or dermatan sulfate (50 or 500 μg dermatan sulfate per mouse per day). Mice were bled at 48 hours after infection via tail vein. Blood collected in 0.12 M sodium citrate in a 9:1 ratio of blood to citrate. Samples were centrifuged and plasma collected and frozen at −20° C. until use. Plasmas were diluted 1:9 in Owrens buffer for analysis. Fibrinogen levels were determined utilizing control standards as measured by an XM coagulometer according to manufacturer's instructions.
Plasma samples from S.aureus infected mice were prepared as described in example 7. Fibrinogen levels were determined utilizing control standards using an XM coagulometer according to manufacturer's instructions.

protein C = experiment: Protein C levels in plasma of S. aureus K2-infected mice; format: in vivo, Balb/c mice; settings: 48 hours
Experimental: as §1, with “Balb/c mice were infected intravenously with 40 million cfu's of S. aureus K2 on day zero. […] Control” for “Control”, “Protein C” for “Fibrinogen”, “as percent levels based on” for “determined utilizing control”, “and its ability to prolong partial thromboplastin time. Clotting assay was evaluated using” for “as measured by”
Plasma samples from S.aureus infected mice were prepared as described in Example 7. Protein C in the plasma was determined as percent levels based on standards and their ability to prolong partial thromboplastin time. Clotting assay was evaluated using an XM coagulometer according to manufacturer's instructions.

[2] = tested on: extrinsic pathway of coagulation; experiment: Prothrombin time in plasma of S. aureus K2-infected mice; format: in vivo, Balb/c mice; settings: 48 hours after infection
Experimental: as §1, with “FIGS. 8A-B show the effect of dermatan sulfate (DS) on the prothrombin time (FIG. 8A) and partial thromboplastin time (FIG. 8B) of mice treated with dermatan sulfate after the onset of S.aureus-induced sepsis. […] Control” for “Control”, “1:3” for “1:9”, “Prothrombin time (PT) and partial thromboplastin time (PTT)” for “Fibrinogen levels”, “utilizing” for “utilizing control standards as measured by”
To ascertain the physiological pathway that is modulated by dermatan sulfate, coagulation profiles of mice treated with low and high concentrations of the compound in the context of S. aureus-induced sepsis was assessed. The extrinsic pathway of coagulation was first evaluated by measuring the prothrombin time (PT) in the plasma of mice forty eight hours after infection with S. aureus and treatment with dermatan sulfate. […] Prothrombin time (PT) was determined utilizing an XM coagulometer according to the manufacturer's instructions.

[3] = tested on: intrinsic pathway of coagulation; experiment: Partial thromboplastin time in plasma of S. aureus K2-infected mice; format: in vivo, Balb/c mice; settings: 48 hours after infection
Experimental: as §1, with “FIGS. 8A-B show the effect of dermatan sulfate (DS) on the prothrombin time (FIG. 8A) and partial thromboplastin time (FIG. 8B) of mice treated with dermatan sulfate after the onset of S.aureus-induced sepsis. […] Control” for “Control”, “1:3” for “1:9”, “Prothrombin time (PT) and partial thromboplastin time (PTT)” for “Fibrinogen levels”, “utilizing” for “utilizing control standards as measured by”
The effect of dermatan sulfate on the intrinsic pathway of coagulation was determined by measuring the active partial thromboplastin time. Plasma samples from S.aureus infected mice was prepared as described in example 7. Partial thromboplastin time (PTT) was determined utilizing an XM coagulometer according to the manufacturer's instructions.

[4] = in vivo, cited from earlier work
S. aureus strain CYL574 = experiment: S. aureus strain CYL574-induced septic death in mice (survival); format: in vivo, Balb/c mice
Experimental: Mice in control group were injected intraperitoneally with PBS.
Experiments evaluating the effects of low molecular weight heparin in preventing mortality and/or prolonging survival were conducted in an animal model of S. aureus-induced septic death.

S. aureus = format: in vivo, mice; settings: 100 or 50 μg per mouse
Experimental: The therapeutic index of low molecular weight heparin was also evaluated by using several-fold concentrations in excess of the clinical dose (1 mg/kg or 20 μg/mouse). […] These adverse effects included hematuria, subcutaneous hematomas, and bleeding at the site of injection. The majority of the mice that died in the low molecular weight heparin group were documented with at least one episode of bleeding. […] Insight into the actual cause of bleeding can be gained by examining the coagulation profiles.

[5] = 30 million cfu K2, FIG. 5A, n=15
[6] = 35 million cfu K2, FIG. 5B, n=20
[7] = infected mice treated with 50 or 500 μg per mouse s.c.

**Q.** Which results are given for chondroitin sulfate A?
**A.** effect of continued daily high doses in infected mice (S. aureus strain K2; s.c., continued daily high doses): detrimental; survival as compared to infected mice treated with PBS (S. aureus strain K2; s.c., greater than 10 mg/kg body weight or greater than 200 μg per mouse, FIG. 4): prolonged survival; survival (S. aureus strain K2; s.c., very high doses >100 mg/kg body weight, first days after onset of sepsis): augmented survival

**Q.** What does the source list for dermatan sulfate?
**A.** toxicity in non infected control mice [1]: non-toxic; fibrinogen levels as compared to infected PBS treated mice (Fibrinogen): did not exhibit any significant difference; survival versus PBS control (S. aureus strain K2; [5]): substantial survival rate; survival versus PBS control (S. aureus strain K2; [6]): dramatic survival rate; clinical state (S. aureus strain K2; 500 μg/day s.c., first twenty four to forty eight hours): did clinically well; effect of very high dose on infected mice (survival) (S. aureus strain K2; approximately 25 mg/kg body weight, 500 μg/day s.c., FIG. 7A): detrimental; also recorded: poor survival; weight of surviving animals (S. aureus strain K2; higher-survival dose versus lower doses, FIG. 6B): substantially lost more weight; protection, high versus lower doses (S. aureus strain K2; s.c., high doses >1 mg/Kg versus <1 mg/Kg, FIGS. 6A-7B): more protective than lower doses; survival rates with tapered dose (S. aureus strain K2; tapering from 16 mg/kg, halved every day to approximately 0.025 mg/Kg on day 13, FIG. 7B): optimal survival rates; protein C levels (protein C; 50 μg/day s.c. (low doses, <10 mg/Kg)): decrease protein C levels; also recorded: broad range of protein c levels that were higher and lower; protein C levels (protein C; 500 μg/day s.c. (high levels, >20 mg/kg), 20 mg/kg): increase plasma C levels; also recorded: dramatically increase protein C levels; prothrombin time as compared to infected PBS treated mice ([2]; 500 μg/day (high dose) s.c.): increase the prothrombin time; also recorded: significant increase in prothrombin time; prothrombin time [2, 7]: contracted prothrombin times; partial thromboplastin time as compared to infected PBS treated mice ([3]; 50 μg/day (low dose) s.c.): decrease the partial throboplastin time; also recorded: slight decrease; partial thromboplastin time as compared to PBS treated infected mice ([3]; 500 μg/day s.c.): significantly prolonged; partial thromboplastin time [3, 7]: prolonged partial thromboplastin time

**Q.** For low molecular weight heparin, which plasma half-life ([4]; iv) is on record?
**A.** The plasma half-life was 2 to 4 h.

**Q.** What about the plasma half-life ([4]; sc) of the same substance?
**A.** The plasma half-life was 3 to 6 h.

**Q.** What about the “plasma half-life relative to unfractionated heparin” value [4] of the same substance?
**A.** The value was 2-4 times.

**Q.** What about the “survival versus PBS control” value (S. aureus strain K2; [5]) of the same substance?
**A.** The value was “higher rate a survival than the control group”.

**Q.** What about the “survival versus PBS control” value (S. aureus strain K2; [6]) of the same substance?
**A.** The value was “higher survival rate than the PBS-treated mice”.

**Q.** And the survival rate (S. aureus strain K2; 1 mg/kg i.p., 72 hr, supra-lethal dose K2, PBS control 20%)?
**A.** Its survival rate is 70%.

**Q.** And the survival rate (S. aureus strain K2; 1 mg/kg i.p., 96 hr, supra-lethal dose K2, PBS control 0%, p=0.01)?
**A.** The survival rate was 60%.

**Q.** And the survival rate (S. aureus strain K2; 5 mg/kg i.p., 96 hours after infection, PBS control 0%)?
**A.** Its survival rate is 22.2%.

**Q.** What about the “survival, low versus high doses” value (S. aureus strain K2; s.c., approximately <0.5 mg/kg per day compared with >1 mg/kg per day, FIG. 3) of the same substance?
**A.** The value was “increased survival”.

**Q.** What about the survival rate (S. aureus strain CYL574; high dose 5 mg/kg i.p., after infection, p=0.0017 versus control) of the same substance?
**A.** The survival rate was 92.8%.

**Q.** What about the survival rate (S. aureus strain CYL574; prophylaxis dose 1 mg/kg i.p., 14 days after infection, PBS control 33.3%) of the same substance?
**A.** The survival rate was 66.7%.

**Q.** And the “survival rates as compared to control mice treated with PBS” value (S. aureus; data not shown)?
**A.** The value was “lower survival rates”.

**Q.** What about the “adverse effects (bleeding)” value (S. aureus; high doses, infected mice) of the same substance?
**A.** Its value is “signs of bleeding after only 48 hr”.
